Measured values published in publication PMC7718874, “Coupling of H3K27me3 recognition with transcriptional repression through the BAH-PHD-CPL2 complex in Arabidopsis” (Nature Communications, 2020).

Legend:
[1] = system: nascent RNA (Pol II transcription rate) of AGO5, SUC5 and downstream nontarget genes; assay: Nuclear run-on assay with or without FLA (flavopiridol) treatment; parameters: species or system Arabidopsis; conditions: for NRO-qPCR, AT1G71900 / NRO-qPCR, AT2G27900 / NRO-qPCR, FT / NRO-qPCR, SUC5 / NRO-qPCR, AGO5: Figure 7c
Description: FLA treatment assay was performed as previous report. In brief, 2-week-old seedlings were collected and incubated with 200 μM FLA or mock solution (DMSO) overnight. The treated seedlings were subjected to total RNA extraction.
Nuclear run-on assay was performed as previous report with minor changes. In brief, after nuclei isolation with buffer (0.25 M sucrose, 15 mM PIPES pH 6.8, 5 mM MgCl2, 60 mM KCl, 15 mM NaCl, 1 mM CaCl2, 0.9% Triton X-100, and protease inhibitor cocktail), the nuclear pellet was resuspended with nuclei storage buffer (50 mM Tris-HCl pH 8, 0.1 mM EDTA, 5 mM MgCl2 and 40% glycerol) and mixed with transcription buffer (10 mM Tris-HCl, pH 8, 2.5 mM MgCl2, 150 mM KCl, 2 mM DTT, 80 units RNase inhibitor, 0.5 mM BrUTP, 1 mM ATP, 1 mM GTP, 1 mM CTP, 0.5 mM UTP, and 0.2% sarkosyl). After incubation at 30 °C for 15 min, the run-on reaction was stopped by adding Trizol reagent (Thermo). The nuclear RNAs were extracted and treated with DNase. The DNA-free RNAs were then inoculated with 2 μg anti-BrdU antibody (abcam) at room temperature for 30 min and precipitated by Dynabeads (Thermo). After two times washing, RNAs were extracted using Trizol reagent (Thermo). cDNAs were synthesized using SuperScript IV Reverse Transcriptase (Thermo) and subjected to qPCR analysis.

CDK kinases = conditions: cited from earlier work

With `CN1CC[C@H](c2c(O)cc(O)c3c(=O)cc(-c4ccccc4Cl)oc23)[C@H](O)C1` [FLA, flavopiridol] the “nascent RNA levels upon FLA treatment (in words)” value ([1]; 200 μM FLA overnight, 2-week-old seedlings, AGO5, SUC5 and downstream nontarget genes, BrUTP run-on, qPCR, normalized to 18 S rRNA, three biological repeats) was “greatly reduced”, the “difference of nascent RNA levels between genotypes upon FLA treatment (in words)” value ([1]; 200 μM FLA overnight, Fig. 7c, three biological repeats) was “no obvious changes were observed between different genotypes” and the “NRO-qPCR, AT1G71900” value ([1]; Col-0 FLA, Repeat 1) was 2e-5. The “NRO-qPCR, AT2G27900” value ([1]; Col-0 FLA, Repeat 1) was 4.5e-5, the “NRO-qPCR, FT” value ([1]; Col-0 FLA, Repeat 1) was 2e-6 and the “NRO-qPCR, SUC5” value ([1]; Col-0 FLA, Repeat 1) was 2e-6. For the same compound, the “NRO-qPCR, AT1G71900” value ([1]; Col-0 FLA, Repeat 2) was 1.6e-5, the “NRO-qPCR, AT2G27900” value ([1]; Col-0 FLA, Repeat 2) was 1.8e-5 and the “NRO-qPCR, FT” value ([1]; Col-0 FLA, Repeat 2) was 2e-6. For the same compound, the “NRO-qPCR, SUC5” value ([1]; Col-0 FLA, Repeat 2) was 1.2e-5, the “NRO-qPCR, AT1G71900” value ([1]; Col-0 FLA, Repeat 3) was 2e-6 and the “NRO-qPCR, AT2G27900” value ([1]; Col-0 FLA, Repeat 3) was 4.7e-5. For the same compound, the “NRO-qPCR, SUC5” value ([1]; Col-0 FLA, Repeat 3) was 5e-6, the “NRO-qPCR, AGO5” value ([1]; aipp2/paipp2 FLA, Repeat 1) was 1.35e-7 and the “NRO-qPCR, AT1G71900” value ([1]; aipp2/paipp2 FLA, Repeat 1) was 1e-5. The “NRO-qPCR, AT2G27900” value ([1]; aipp2/paipp2 FLA, Repeat 1) was 3.1e-5, the “NRO-qPCR, FT” value ([1]; aipp2/paipp2 FLA, Repeat 1) was 5e-6 and the “NRO-qPCR, SUC5” value ([1]; aipp2/paipp2 FLA, Repeat 1) was 1.1e-5. The “NRO-qPCR, AT1G71900” value ([1]; aipp2/paipp2 FLA, Repeat 2) was 1.3e-5, the “NRO-qPCR, AT2G27900” value ([1]; aipp2/paipp2 FLA, Repeat 2) was 2.6e-5 and the “NRO-qPCR, FT” value ([1]; aipp2/paipp2 FLA, Repeat 2) was 4e-6. For the same compound, the “NRO-qPCR, SUC5” value ([1]; aipp2/paipp2 FLA, Repeat 2) was 1.2e-5, the “NRO-qPCR, AGO5” value ([1]; aipp2/paipp2 FLA, Repeat 3) was 2.05e-6 and the “NRO-qPCR, AT2G27900” value ([1]; aipp2/paipp2 FLA, Repeat 3) was 2.3e-5. The “NRO-qPCR, AT1G71900” value ([1]; aipp3 FLA, Repeat 1) was 1.1e-5, the “NRO-qPCR, AT2G27900” value ([1]; aipp3 FLA, Repeat 1) was 1.5e-5 and the “NRO-qPCR, FT” value ([1]; aipp3 FLA, Repeat 1) was 3e-6. The “NRO-qPCR, SUC5” value ([1]; aipp3 FLA, Repeat 1) was 2e-6, the “NRO-qPCR, AT1G71900” value ([1]; aipp3 FLA, Repeat 2) was 1e-5 and the “NRO-qPCR, AT2G27900” value ([1]; aipp3 FLA, Repeat 2) was 5e-5. For the same compound, the “NRO-qPCR, FT” value ([1]; aipp3 FLA, Repeat 2) was 1e-6, the “NRO-qPCR, SUC5” value ([1]; aipp3 FLA, Repeat 2) was 2e-6 and the “NRO-qPCR, AT1G71900” value ([1]; aipp3 FLA, Repeat 3) was 1e-5. For the same compound, the “NRO-qPCR, AT2G27900” value ([1]; aipp3 FLA, Repeat 3) was 7.2e-5, the “NRO-qPCR, SUC5” value ([1]; aipp3 FLA, Repeat 3) was 1e-6 and the “NRO-qPCR, AGO5” value ([1]; cpl2 FLA, Repeat 1) was 1.31e-6. For the same compound, the “NRO-qPCR, AT1G71900” value ([1]; cpl2 FLA, Repeat 1) was 2e-6, the “NRO-qPCR, AT2G27900” value ([1]; cpl2 FLA, Repeat 1) was 1.6e-5 and the “NRO-qPCR, FT” value ([1]; cpl2 FLA, Repeat 1) was 1e-6. For the same compound, the “NRO-qPCR, SUC5” value ([1]; cpl2 FLA, Repeat 1) was 1e-5, the “NRO-qPCR, AGO5” value ([1]; cpl2 FLA, Repeat 2) was 5.33e-7 and the “NRO-qPCR, AT1G71900” value ([1]; cpl2 FLA, Repeat 2) was 2e-6. For the same compound, the “NRO-qPCR, AT2G27900” value ([1]; cpl2 FLA, Repeat 2) was 2.7e-5, the “NRO-qPCR, FT” value ([1]; cpl2 FLA, Repeat 2) was 2e-6 and the “NRO-qPCR, SUC5” value ([1]; cpl2 FLA, Repeat 2) was 7e-6. The “NRO-qPCR, AT2G27900” value ([1]; cpl2 FLA, Repeat 3) was 1.1e-5, the “NRO-qPCR, FT” value ([1]; cpl2 FLA, Repeat 3) was 1e-6 and the “NRO-qPCR, SUC5” value ([1]; cpl2 FLA, Repeat 3) was 8e-6. The “reduction of Pol II CTD phosphorylation (in words)” value (CDK kinases) was “reduce the phosphorylation of Pol II CTD by inhibiting the activity of CDK kinases”.
